In ChEMBL document CHEMBL1201862, “PubChem BioAssay data set” (2004):
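1) Cells in 96-well plates. 2) Compound, 48 h, 5 concentrations. 3) Linear interpolation between surrounding doses. 4) Unreached endpoint = highest concentration. GI50 = concentration required for 50% inhibition of growth.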 The source made the active and inactive calls. No stated cut-off is given here; in the data, active = GI50 up to about 1.1 µM and inactive = higher.

Assays:
Experiment in all cases: inhibition of tumour cell growth, NCI panel, 48 h
786-0 = system: 786-0
ACHN = system: ACHN
BT-549 = system: BT-549
CAKI-1 = system: CAKI-1
HCC 2998 = system: HCC 2998
HOP-62 = system: HOP-62
HOP-92 = system: HOP-92
Hs-578T = system: Hs-578T
MDA-MB-435 = system: MDA-MB-435
NCI/ADR-RES = system: NCI/ADR-RES
PC-3 = system: PC-3
RPMI-8226 = system: RPMI-8226
SF-268 = system: SF-268
SF-295 = system: SF-295
SK-MEL-5 = system: SK-MEL-5
SN12C = system: SN12C
SNB-19 = system: SNB-19
T47D = system: T47D
TK-10 = system: TK-10
UACC-62 = system: UACC-62

Measured: GI50

CC(C)(C)c1cc2c(OC/C=C/c3ccccc3)c(c1)Cc1cc(C(C#N)(OC/C=C/c3ccccc3)OC/C=C/c3ccccc3)cc(c1OC/C=C\c1ccccc1)Cc1cc(C(C)(C)C)cc(c1OC/C=C/c1ccccc1)Cc1cc(C(C#N)(OC/C=C\c3ccccc3)OC/C=C/c3ccccc3)cc(c1OC/C=C\c1ccccc1)C2 (stereo not given)
inactive: 786-0 > 100 µM | ACHN > 100 µM | BT-549 > 100 µM | CAKI-1 > 100 µM | HCC 2998 > 100 µM | HOP-62 > 100 µM | HOP-92 95.5 µM | Hs-578T > 100 µM | MDA-MB-435 > 100 µM | NCI/ADR-RES > 100 µM | PC-3 > 100 µM | RPMI-8226 > 100 µM | SF-268 > 100 µM | SF-295 > 100 µM | SK-MEL-5 > 100 µM | SN12C > 100 µM | SNB-19 > 100 µM | T47D > 100 µM | TK-10 1.95 µM | UACC-62 > 100 µM

Cc1cccc(CC(Cc2ccc(C)cc2C(=O)O)C(=O)O)c1 (stereo not given)
inactive: 786-0 > 100 µM | ACHN > 100 µM | BT-549 > 100 µM | CAKI-1 > 100 µM | HCC 2998 > 100 µM | HOP-62 > 100 µM | HOP-92 > 100 µM | Hs-578T > 100 µM | MDA-MB-435 > 100 µM | NCI/ADR-RES > 100 µM | PC-3 > 100 µM | RPMI-8226 > 100 µM | SF-268 > 100 µM | SF-295 > 100 µM | SK-MEL-5 > 100 µM | SN12C > 100 µM | SNB-19 > 100 µM | T47D > 100 µM | TK-10 > 100 µM | UACC-62 42 µM
